Measured values: patent publication US5889053A, “Farnesyl transferase inhibitors, preparation thereof and pharmaceuticals compositions containing said inhibitors” (Rhone-Poulenc Rorer S.A., priority 1995, dated 1999)

These compounds were tested on farnesylation of the Ras protein in THAC cells (CCL 39 cells transfected with activated Ha-Ras) (assay: Activity against cells: inhibition of farnesylation of the Ras protein in THAC cells (Western blot)). Conditions: CCL39, 24 h at 37° C.
Type: cell-based
Method: The activity against cells can be determined in the following way:
The cell line is the THAC line (CCL 39 cells transfected with activated Ha-Ras) according to K. Seuwen et al., EMBO J., 7(1) 161-168 (1988). The cells are cultured in Petri dishes with a diameter of 6 cm containing a DMEM medium, 5% foetal calf serum and 1% G418.
After culturing for 24 hours, the culture medium is changed (with or without the serum) and the product to be studied is added in solution in dimethylformamide (DMF), in the presence or in the absence of DTT (final concentrations of 0.5% in DMF and 0.1 mM in DTT). After culturing for 24 hours at 37° C., the cells are lysed in 1 cm^3 of lysis buffer (20 mM Tris, HCl, 1% Triton X114, 5 mM MgCl2, 7 mM DTT, 150 mM NaCl, pH=7.4). The lysates are clarified by centrifuging at 4000 revolutions/minute for 10 minutes. […] The radioactivity of the bands corresponding to farnesylated Ras and to non-farnesylated Ras makes it possible to determine the percentage of inhibition of farnesylation of the Ras protein.

Row | SMILES | inhibition at 10 µM [%]
1 | COC(=O)[C@H](CCSC)NC(=O)c1ccc(NC[C@@H](N)CS)c2ccccc12 [Example 2, methyl ester of N-[4-(2(R)-amino-3-mercaptopropylamino)naphthyl-1-carbonyl]-L-methionine] | 40

These compounds were tested against T1, human farnesyl transferase (Homo sapiens, UniProt P49354+P49356) (assay: Inhibition of farnesyl transferase and of farnesylation of the Ras protein ([3H]farnesyl transfer from [3H]FPP to p21 H-Ras)). Conditions: p21 H-Ras substrate, 20 min at 37° C., 9 concentrations; read-out: Inhibitory activity IC50.
T1 construct: human farnesyl transferase purified from THP1 cell cultures; endogenous in cells; host or cells: THP1
Type: biochemical
Method: Farnesyl transferase activity is determined by the quantity of [^3 H]farnesyl transferred from [^3 H]farnesyl pyrophosphate ([^3 H]FPP) to the p21 H-Ras protein. The standard reaction mixture is composed, for a final volume of 60 μl, of 50 mM Tris-HCl, 5 mM MgCl2, 5 mM dithiothreitol, 0.2% octyl β-D-glucopyranoside, 200 picomol p21 H-Ras, 4.5 picomol [^3 H]FPP (activity 61000 dpm/picomol).
Reaction is initiated by adding approximately 5 ng of human farnesyl transferase purified from THP1 cell cultures. After incubation for 20 minutes at 37° C. in a microtitration plate containing 96 1-cm^3 wells per plate (Titer Plate®, Beckman), the reaction is stopped by adding 0.4 cm^3 of 0.1% SDS in methanol at 0° C. The mixture is then treated with 0.4 cm^3 of 30% trichloroacetic acid (TCA) in methanol. The plates are left in ice for 1 hour. The precipitated contents are then retained on Filtermat®, Pharmacia) glass fibre membranes with the filtration unit (Combi Cell Harvester®, Skatron), and rinsed with 6% trichloroacetic acid in distilled water. The membranes are dried in a microwave oven, then impregnated with scintillation medium by melting of Meltilex® (Pharmacia) under hot air, and lastly counted in cpm in a β-Plate counter® (LKB). Each test is repeated 3 times.
The unit of activity is defined as 1 picomole of [^3 H]FPP transferred to p21 H-Ras in 20 minutes.
The percentage inhibition values are obtained by comparison of the tests with and without inhibitor after deduction of blanks, the IC50 values being measured on the basis of the inhibitions obtained with 9 different concentrations using Enzfitter® or Grafit® software.

Row | SMILES | IC50 [nM]
2 | CSCC[C@H](NC(=O)c1ccc(NC[C@@H](N)CS)c2ccccc12)C(=O)O [Example 1, N-[4-(2(R)-amino-3-mercaptopropylamino)naphthyl-1-carbonyl]-L-methionine] | 23
3 | COC(=O)[C@H](CCSC)NC(=O)c1ccc(NC[C@@H](N)CS)c2ccccc12 [Example 2, methyl ester of N-[4-(2(R)-amino-3-mercaptopropylamino)naphthyl-1-carbonyl]-L-methionine] | 100
4 | CSCC[C@H](NC(=O)c1cc(NC[C@@H](N)CS)cc2ccccc12)C(=O)O [Example 4, N-[3-(2(R)-amino-3-mercaptopropylamino)naphthyl-1-carbonyl]-L-methionine] | 31

More lines, now with the values ahead:

Row | IC50 [nM] | SMILES
5 | 300 | COC(=O)[C@H](CCSC)NC(=O)c1cc(NC[C@@H](N)CS)cc2ccccc12 [Example 5, methyl ester of N-[3-(2(R)-amino-3-mercaptopropylamino)naphthyl-1-carbonyl]-L-methionine]
6 | 55 | CSCC[C@H](NC(=S)c1cc(NC[C@@H](N)CS)cc2ccccc12)C(=O)O [Example 6, N-[3-(2(R)-amino-3-mercaptopropylamino)naphthyl-1-thiocarbonyl]-L-methionine]
